pEC50: −log10 of the molar value.
Assays:
Mus musculus = test: Toxicity in DIO C57BL6 mouse assessed as body weight loss at 30 mg/kg, po administered qd from day 1 to 7 and bid from day 8 to 14 followed by single dose on day 15 morning; type: organism-based; parameters: dose 30 mg/kg, route oral; conditions: in vivo
Homo sapiens [1] = species on record: Homo sapiens; test: Reduction of triglyceride AUC in human relative to baseline; type: functional; parameters: scale not given: the % may be the effect or the level left
Homo sapiens [2] = species on record: Homo sapiens; test: Reduction of triglyceride AUC in human at 60 mg; type: functional; parameters: scale not given: the % may be the effect or the level left
[3] = Tmax in human; type: ADME, organism-based; conditions: in vivo
Homo sapiens [4] = species on record: Homo sapiens; test: Reduction of triglyceride AUC in human; type: functional, organism-based
Homo sapiens [5] = species on record: Homo sapiens; test: Reduction of triglyceride AUC in human receiving 60% fat meal at >5 mg; type: functional; parameters: scale not given: the % may be the effect or the level left
Homo sapiens [6] = test: Reduction in triglycerides in familial chylomicronemia syndrome patients measured after 3 weeks of compound dosing; type: functional; parameters: scale not given: the % may be the effect or the level left

SMILES: CC1(C)Oc2ncnc(N)c2N=C1c1ccc([C@H]2CC[C@H](CC(=O)O)CC2)cc1
- Activity (Mus musculus): 6.7%

SMILES: Cc1nc(C)c(-c2ccc(C3CCC(CC(=O)O)CC3)cc2)nc1C(N)=O (configuration not stated) [AZD-7687]
- Activity (Homo sapiens [1]): 84%
- Activity (Homo sapiens [2]): 50%
- Tmax [3]: 1 h
- pEC50 (Homo sapiens [4]): 6.36
- Activity (Homo sapiens [5]): >75%

SMILES: O=C(O)C[C@H]1CC[C@H](c2ccc(-c3ccc(Nc4ccc(C(F)(F)F)nc4)cn3)cc2)CC1 [PRADIGASTAT]
- Activity (Homo sapiens [6]): 38.4%

Reference: ChEMBL document CHEMBL3102782, “Current status of the research and development of diacylglycerol O-acyltransferase 1 (DGAT1) inhibitors” (J Med Chem, 2013)
